Experimental data taken from ChEMBL document CHEMBL5331042, “Azole inhibitors of mushroom and human tyrosinases: Current advances and prospects of drug development for melanogenic dermatological disorders” (Eur J Med Chem, 2022).
Peptide text beside a SMILES is read from it.

Each compound was assayed against T1, Mushroom tyrosinase (Agaricus bisporus, UniProt O42713+Q00024+C7FF04+C7FF05) (assay: Inhibition of mushroom tyrosinase).
For `CC(C)[C@H]1C(=O)N2CCC[C@H]2C(=O)N[C@@H](Cc2ccc(O)cc2)C(=O)N2CCC[C@H]2c2cn1nn2`, the IC50 was 1.5 µM. In the case of `CC(C)[C@@H]1NC(=O)[C@@H]2CCCN2C(=O)[C@H](Cc2ccc(O)cc2)NC(=O)[C@@H]2CCCN2C1=O` (cyclo(PVPY)), the IC50 is reported as 0.6 µM. `CC(C)[C@H]1C(=O)N2CCC[C@H]2c2cn(nn2)[C@@H](Cc2ccc(O)cc2)C(=O)N2CCC[C@H]2c2cn1nn2` gave an IC50 of 1.6 µM. `CC(C)[C@@H]1NC(=O)[C@@H]2CCCN2C(=O)[C@H](Cc2ccc(O)cc2)n2cc(nn2)[C@@H]2CCCN2C1=O` showed an IC50 of 0.5 µM.

Each compound was assayed against T1, Mushroom tyrosinase (assay: Inhibition of mushroom tyrosinase incubated for 10 mins by spectrophotometric analysis).
`CCCCCn1nc(-c2ccccc2)n(CC(=O)NNC(=O)Nc2cc(Cl)cc(Cl)c2)c1=O` was tested, and the IC50 was > 20 µM. Compound `CCCCCn1nc(-c2ccccc2)n(CC(=O)NNC(=S)Nc2ccc(C(F)(F)F)cc2)c1=O` has an IC50 of 1.49 µM. `CCCCCn1nc(-c2ccccc2)n(CC(=O)NNC(=S)Nc2ccccc2Br)c1=O` was tested, and the IC50 was > 20 µM. `CCCCCn1nc(-c2ccccc2)n(CC(=O)NNC(=O)Nc2ccc(C(F)(F)F)cc2)c1=O` was tested, and the IC50 was > 20 µM. `CCCCCn1nc(-c2ccccc2)n(CC(=O)NNC(=O)Nc2cccc(F)c2)c1=O` was tested, and the IC50 was > 20 µM. With `CCCCCn1nc(-c2ccccc2)n(CC(=O)NNC(=O)Nc2ccc(F)cc2)c1=O` the IC50 was > 20 µM. `CCCCCn1nc(-c2ccccc2)n(CC(=O)NNC(=S)Nc2ccc(Cl)cc2)c1=O` showed an IC50 of 0.19 µM. With `CCCCCn1nc(-c2ccccc2)n(CC(=O)NNC(=S)Nc2ccccc2Cl)c1=O` the IC50 was 4.68 µM. In the case of `CCCCCn1nc(-c2ccccc2)n(CC(=O)NNC(=O)Nc2cccc(C(F)(F)F)c2)c1=O`, the IC50 is reported as 0.00165 µM. Work on `CCCCCn1nc(-c2ccccc2)n(CC(=O)NNC(=S)Nc2ccc(F)cc2)c1=O` yielded an IC50 of 0.014 µM. In the case of `CCCCCn1nc(-c2ccccc2)n(CC(=O)NNC(=S)Nc2cc(C(F)(F)F)cc(C(F)(F)F)c2)c1=O`, the IC50 is reported as > 20 µM. In the case of `CCCCCn1nc(-c2ccccc2)n(CC(=O)NNC(=O)Nc2cccc(Br)c2)c1=O`, the IC50 is reported as > 20 µM. `CCCCCn1nc(-c2ccccc2)n(CC(=O)NNC(=S)Nc2cccc(C(F)(F)F)c2)c1=O` was tested, and the IC50 was > 20 µM. With `CCCCCn1nc(-c2ccccc2)n(CC(=O)NNC(=S)Nc2ccc(Cl)cc2Cl)c1=O` the IC50 was > 20 µM. Work on `CCCCCn1nc(-c2ccccc2)n(CC(=O)NNC(=S)Nc2cccc(F)c2)c1=O` yielded an IC50 of 15.2 µM. With `CCCCCn1nc(-c2ccccc2)n(CC(=O)NNC(=S)Nc2ccc(Br)cc2)c1=O` the IC50 was 0.019 µM. `CCCCCn1nc(-c2ccccc2)n(CC(=O)NNC(=O)Nc2ccc(Cl)cc2)c1=O` was tested, and the IC50 was > 20 µM. `CCCCCn1nc(-c2ccccc2)n(CC(=O)NNC(=S)Nc2ccc(F)cc2F)c1=O` gave an IC50 of 0.019 µM. In the case of `CCCCCn1nc(-c2ccccc2)n(CC(=O)NNC(=O)Nc2ccccc2F)c1=O`, the IC50 is reported as > 20 µM. `CCCCCn1nc(-c2ccccc2)n(CC(=O)NNC(=O)Nc2ccc(Cl)cc2Cl)c1=O` was tested, and the IC50 was 0.00162 µM. For `CCCCCn1nc(-c2ccccc2)n(CC(=O)NNC(=O)Nc2cc(C(F)(F)F)cc(C(F)(F)F)c2)c1=O`, the IC50 was 0.00197 µM. `CCCCCn1nc(-c2ccccc2)n(CC(=O)NNC(=S)Nc2cc(Cl)cc(Cl)c2)c1=O` gave an IC50 of 0.17 µM. With `CCCCCn1nc(-c2ccccc2)n(CC(=O)NNC(=O)Nc2ccccc2Cl)c1=O` the IC50 was > 20 µM. With `CCCCCn1nc(-c2ccccc2)n(CC(=O)NNC(=S)Nc2cccc(Cl)c2)c1=O` the IC50 was 5.4 µM. For `CCCCCn1nc(-c2ccccc2)n(CC(=O)NNC(=O)Nc2ccccc2Br)c1=O`, the IC50 was > 20 µM.

The compounds below were run against T1, Mushroom tyrosinase (assay: Inhibition of mushroom tyrosinase using L-DOPA as substrate preincubated for 10 mins followed by substrate addition and measured after 20 mins).
Work on `COc1ccccc1-n1c(SCC(=O)Nc2ccc(I)cc2)nnc1-c1ccccc1F` yielded an IC50 of 0.06 µM. `COc1ccccc1-n1c(SCC(=O)Nc2ccc(F)cc2)nnc1-c1ccccc1F` was tested, and the IC50 was 0.17 µM. In the case of `COc1ccccc1-n1c(SCC(=O)Nc2ccccc2)nnc1-c1ccccc1`, the IC50 is reported as 0.02 µM. `CCCCn1c(SCC(=O)Nc2ccc(F)cc2)nnc1-c1ccccc1` showed an IC50 of 0.37 µM. `CCCCn1c(SCC(=O)Nc2ccccc2)nnc1-c1ccccc1` showed an IC50 of 0.21 µM. Work on `COc1ccccc1-n1c(SCC(=O)Nc2ccccc2)nnc1-c1ccccc1F` yielded an IC50 of 0.54 µM. For `COc1ccccc1-n1c(SCC(=O)Nc2ccc(Br)cc2)nnc1-c1ccccc1F`, the IC50 was 0.15 µM. Work on `COc1ccccc1-n1c(SCC(=O)Nc2ccc(F)cc2)nnc1-c1ccccc1` yielded an IC50 of 0.08 µM. For `CCCCn1c(SCC(=O)Nc2ccc(Br)cc2)nnc1-c1ccccc1`, the IC50 was 0.34 µM. In the case of `CCCCn1c(SCC(=O)Nc2ccc(I)cc2)nnc1-c1ccccc1`, the IC50 is reported as 0.21 µM. `COc1ccccc1-n1c(SCC(=O)Nc2ccc(I)cc2)nnc1-c1ccccc1` was tested, and the IC50 was 0.65 µM.

What follows are compounds tested against T1, Mushroom tyrosinase (assay: Inhibition of mushroom tyrosinase using L-tyrosine as substrate preincubated for 20 mins followed by substrate addition by absorbance based analysis).
In the case of `NC(=S)N/N=C/c1ccc(OCc2cn(CC(=O)Nc3ccc(F)cc3)nn2)cc1`, the IC50 is reported as 0.14 µM. `Cc1c(NC(=O)Cn2cc(COc3ccc(/C=N/NC(N)=S)cc3)nn2)cccc1[N+](=O)[O-]` was tested, and the IC50 was 0.25 µM. `NC(=S)N/N=C/c1ccc(OCc2cn(CC(=O)Nc3ccccc3)nn2)cc1` gave an IC50 of 0.79 µM. With `COc1cccc(NC(=O)Cn2cc(COc3ccc(/C=N/NC(N)=S)cc3)nn2)c1` the IC50 was 0.22 µM. `COc1ccc(NC(=O)Cn2cc(COc3ccc(/C=N/NC(N)=S)cc3)nn2)cc1` gave an IC50 of 0.12 µM. `NC(=S)N/N=C/c1ccc(OCc2cn(CC(=O)NCc3ccc(F)cc3)nn2)cc1` gave an IC50 of 0.83 µM.

What follows are compounds tested against T1, Mushroom tyrosinase (assay: Inhibition of mushroom tyrosinase using L-DOPA as substrate preincubated for 20 mins followed by substrate addition by absorbance based analysis).
For `NC(=S)N/N=C/c1ccc(OCc2cn(CC(=O)Nc3ccc(F)cc3)nn2)cc1`, the IC50 was 0.6 µM. Work on `Cc1c(NC(=O)Cn2cc(COc3ccc(/C=N/NC(N)=S)cc3)nn2)cccc1[N+](=O)[O-]` yielded an IC50 of 0.56 µM. `NC(=S)N/N=C/c1ccc(OCc2cn(CC(=O)Nc3ccccc3)nn2)cc1` showed an IC50 of 2.18 µM. With `COc1cccc(NC(=O)Cn2cc(COc3ccc(/C=N/NC(N)=S)cc3)nn2)c1` the IC50 was 0.84 µM. Compound `NC(=S)N/N=C/c1ccc(OCc2cn(CC(=O)Nc3ccc([N+](=O)[O-])cc3)nn2)cc1` has an IC50 of 0.68 µM. `Cc1c(Cl)cccc1NC(=O)Cn1cc(COc2ccc(/C=N/NC(N)=S)cc2)nn1` showed an IC50 of 0.26 µM. With `COc1ccc(NC(=O)Cn2cc(COc3ccc(/C=N/NC(N)=S)cc3)nn2)cc1` the IC50 was 0.52 µM. For `NC(=S)N/N=C/c1ccc(OCc2cn(CC(=O)NCc3ccc(F)cc3)nn2)cc1`, the IC50 was 0.43 µM. `NC(=S)N/N=C/c1ccc(OCc2cn(CC(=O)Nc3cccc(Cl)c3Cl)nn2)cc1` was tested, and the IC50 was 0.42 µM. With `NC(=S)N/N=C/c1ccc(OCc2cn(CC(=O)Nc3cccc(Cl)c3)nn2)cc1` the IC50 was 0.5 µM.

What follows are compounds tested against T2, Tyrosinase (Homo sapiens, UniProt P14679) (assay: Inhibition of human tyrosinase using L-DOPA as substrate incubated for 10 to 20 mins by MBTH dye based assay).
T2 sequence (P14679 whole entry): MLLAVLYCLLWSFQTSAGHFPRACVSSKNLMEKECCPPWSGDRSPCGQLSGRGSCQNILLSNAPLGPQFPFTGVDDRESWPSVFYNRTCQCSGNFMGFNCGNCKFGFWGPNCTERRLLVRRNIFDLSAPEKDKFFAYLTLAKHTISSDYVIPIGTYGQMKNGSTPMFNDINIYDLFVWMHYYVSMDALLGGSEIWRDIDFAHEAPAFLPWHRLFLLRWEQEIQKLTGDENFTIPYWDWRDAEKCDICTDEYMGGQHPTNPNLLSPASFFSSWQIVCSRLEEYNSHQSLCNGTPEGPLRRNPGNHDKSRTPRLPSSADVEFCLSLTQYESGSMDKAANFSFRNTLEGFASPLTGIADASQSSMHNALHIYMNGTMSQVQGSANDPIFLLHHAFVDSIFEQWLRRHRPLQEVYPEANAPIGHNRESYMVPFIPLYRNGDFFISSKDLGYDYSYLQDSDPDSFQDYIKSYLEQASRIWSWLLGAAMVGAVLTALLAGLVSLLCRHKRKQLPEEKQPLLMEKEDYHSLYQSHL
In the case of `Cc1sc(NC(=O)C2CCCCC2)nc1-c1ccc(O)cc1O`, the IC50 is reported as > 1000 µM. For `CC(C)(O)c1ccc(C(=O)Nc2nc(-c3ccc(O)cc3O)cs2)cc1`, the IC50 was 3.2 µM. In the case of `O=C(NC1CCCCC1)c1nc(-c2ccc(O)cc2O)cs1`, the IC50 is reported as 56 µM. With `CCCCc1ccc(O)c(C)c1O` the IC50 was > 200 µM. Compound `CC(C)(C)C(=O)Nc1nc(-c2ccc(O)cc2O)cs1` has an IC50 of 5.7 µM. `CCC(=O)Nc1nc(-c2ccc(O)cc2F)cs1` was tested, and the IC50 was > 700 µM. With `CN(C(=O)C1CCCCC1)c1nc(-c2ccc(O)cc2O)cs1` the IC50 was > 1000 µM. In the case of `CC(C)Nc1nc(-c2ccc(O)cc2O)cs1`, the IC50 is reported as 1.1 µM. `CC(=O)Nc1nc(-c2ccc(O)cc2O)cs1` showed an IC50 of 5.6 µM. With `CCCNc1nc(-c2ccc(O)cc2O)cs1` the IC50 was 6.2 µM. For `Oc1ccc(-c2csc(Nc3ncccn3)n2)cc1`, the IC50 was 19 µM. `CC(=O)/C=C/Nc1nc(-c2ccc(O)cc2O)cs1` was tested, and the IC50 was 3.5 µM. With `CCCCCCc1ccc(O)c(C)c1O` the IC50 was 93 µM. `Oc1ccc(-c2csc(NC3CCCCC3)n2)c(O)c1` showed an IC50 of 16 µM. In the case of `CCCC(=O)Nc1cnc(-c2cc(CCC)c(O)cc2O)s1`, the IC50 is reported as > 1000 µM. In the case of `CN(c1nc(-c2ccc(O)cc2O)cs1)C1CCCCC1`, the IC50 is reported as 40 µM. Compound `OCc1ccc(Nc2nc(-c3ccc(O)cc3O)cs2)cc1` has an IC50 of 5.7 µM. `O=C(Nc1cccc(-c2ccc(O)cc2O)c1)C1CCCCC1` was tested, and the IC50 was > 700 µM. `CC(=O)Nc1nc(-c2ccc(O)cc2O)c[nH]1` was tested, and the IC50 was > 700 µM. `O=C(NC1CCCCC1)c1csc(-c2ccc(O)cc2O)n1` was tested, and the IC50 was 3.2 µM. With `OCCc1ccc(O)cc1O` the IC50 was > 200 µM.
